# Measured values reported in patent US10167262B2, “Herbicidal substituted 3-arylpyrazoles” (FMC CORPORATION, priority 2014, dated 2019).
# Columns and labels:
# Assay in all cases: Test A pre-/postemergence greenhouse herbicide test, visual injury rating 0-100
# Assay type in all cases: in vivo
# [1] = system: velvetleaf (Abutilon theophrasti)
# Text: (§1) Seeds of plant species selected from barnyardgrass (Echinochloa crus-galli), large (Lg) crabgrass (Digitaria sanguinalis), giant foxtail (Setaria faberii), morningglory (Ipomoea spp.), pigweed (Amaranthus retroflexus), velvetleaf (Abutilon theophrasti), wheat (Triticum aestivum), and corn (Zea mays) were planted into a blend of loam soil and sand and treated preemergence with a directed soil spray using test chemicals formulated in a non-phytotoxic solvent mixture which included a surfactant. At the same time these species were also treated with postemergence applications of test chemicals formulated in the same manner. Plants ranged in height from 2 to 10 cm and were in the one- to two-leaf stage for the postemergence treatment. Treated plants and untreated controls were maintained in a greenhouse for approximately 10 days, after which time all treated plants were compared to untreated controls and visually evaluated for injury. Plant response ratings, summarized in Table A, are based on a 0 to 100 scale where 0 is no effect and 100 is complete control. A dash (-) response means no test result.
# [2] = system: giant foxtail (Setaria faberii)
# Text: as §1
# [3] = system: barnyardgrass (Echinochloa crus-galli)
# Text: as §1
# [4] = system: morningglory (Ipomoea spp.)
# Text: as §1
# [5] = system: pigweed (Amaranthus retroflexus)
# Text: as §1
# [6] = system: large (Lg) crabgrass (Digitaria sanguinalis)
# Text: as §1
# [7] = system: wheat (Triticum aestivum)
# Text: as §1
# [8] = system: corn (Zea mays)
# Text: as §1
smiles,measurement,setting,value
O=C(c1ccccc1)c1cn(CC(F)F)nc1-c1cc(Cl)cc(Cl)c1 [Compound 59],"Plant response rating (0 to 100 scale), Velvetleaf","[1]; Postemergence, 125 g ai/ha",50
same,"Plant response rating (0 to 100 scale), Velvetleaf","[1]; Postemergence, 500 g ai/ha",70
same,"Velvetleaf plant response rating (0 = no effect, 100 = complete control)","[1]; Preemergence, 125 g ai/ha",0
same,"Plant response rating (0 to 100 scale), Velvetleaf","[1]; Preemergence, 500 g ai/ha",40
same,"Plant response rating (0 to 100 scale), Foxtail, Giant","[2]; Postemergence, 125 g ai/ha",0
same,"Plant response rating (0 to 100 scale), Foxtail, Giant","[2]; Postemergence, 500 g ai/ha",0
same,"Foxtail, Giant plant response rating (0 = no effect, 100 = complete control)","[2]; Preemergence, 125 g ai/ha",0
same,"Plant response rating (0 to 100 scale), Foxtail, Giant","[2]; Preemergence, 500 g ai/ha",0
same,"Plant response rating (0 to 100 scale), Barnyardgrass","[3]; Postemergence, 125 g ai/ha",0
same,"Plant response rating (0 to 100 scale), Barnyardgrass","[3]; Postemergence, 500 g ai/ha",0
same,"Barnyardgrass plant response rating (0 = no effect, 100 = complete control)","[3]; Preemergence, 125 g ai/ha",0
same,"Plant response rating (0 to 100 scale), Barnyardgrass","[3]; Preemergence, 500 g ai/ha",0
same,"Plant response rating (0 to 100 scale), Morningglory","[4]; Postemergence, 125 g ai/ha",0
same,"Plant response rating (0 to 100 scale), Morningglory","[4]; Postemergence, 500 g ai/ha",0
same,"Morningglory plant response rating (0 = no effect, 100 = complete control)","[4]; Preemergence, 125 g ai/ha",0
same,"Plant response rating (0 to 100 scale), Morningglory","[4]; Preemergence, 500 g ai/ha",0
same,"Plant response rating (0 to 100 scale), Pigweed","[5]; Postemergence, 125 g ai/ha",60
same,"Plant response rating (0 to 100 scale), Pigweed","[5]; Postemergence, 500 g ai/ha",80
same,"Pigweed plant response rating (0 = no effect, 100 = complete control)","[5]; Preemergence, 125 g ai/ha",0
same,"Plant response rating (0 to 100 scale), Pigweed","[5]; Preemergence, 500 g ai/ha",30
same,"Plant response rating (0 to 100 scale), Crabgrass, Large","[6]; Postemergence, 125 g ai/ha",0
same,"Plant response rating (0 to 100 scale), Crabgrass, Large","[6]; Postemergence, 500 g ai/ha",0
same,"Crabgrass, Large plant response rating (0 = no effect, 100 = complete control)","[6]; Preemergence, 125 g ai/ha",0
same,"Plant response rating (0 to 100 scale), Crabgrass, Large","[6]; Preemergence, 500 g ai/ha",0
same,"Plant response rating (0 to 100 scale), Wheat","[7]; Postemergence, 125 g ai/ha",0
same,"Plant response rating (0 to 100 scale), Wheat","[7]; Postemergence, 500 g ai/ha",0
same,"Wheat plant response rating (0 = no effect, 100 = complete control)","[7]; Preemergence, 125 g ai/ha",0
same,"Plant response rating (0 to 100 scale), Corn","[8]; Postemergence, 125 g ai/ha",0
same,"Plant response rating (0 to 100 scale), Corn","[8]; Postemergence, 500 g ai/ha",0
same,"Corn plant response rating (0 = no effect, 100 = complete control)","[8]; Preemergence, 125 g ai/ha",0
same,"Plant response rating (0 to 100 scale), Corn","[8]; Preemergence, 500 g ai/ha",0
O=C(c1ccccc1)c1cn(CC(F)F)nc1-c1cc(F)cc(Cl)c1 [Compound 40],"Plant response rating (0 to 100 scale), Velvetleaf","[1]; Postemergence, 1000 g ai/ha",0
same,"Plant response rating (0 to 100 scale), Velvetleaf","[1]; Preemergence, 1000 g ai/ha",0
same,"Plant response rating (0 to 100 scale), Foxtail, Giant","[2]; Postemergence, 1000 g ai/ha",0
same,"Plant response rating (0 to 100 scale), Foxtail, Giant","[2]; Preemergence, 1000 g ai/ha",0
same,"Plant response rating (0 to 100 scale), Barnyardgrass","[3]; Postemergence, 1000 g ai/ha",0
same,"Plant response rating (0 to 100 scale), Barnyardgrass","[3]; Preemergence, 1000 g ai/ha",0
same,"Plant response rating (0 to 100 scale), Morningglory","[4]; Postemergence, 1000 g ai/ha",0
same,"Plant response rating (0 to 100 scale), Morningglory","[4]; Preemergence, 1000 g ai/ha",0
same,"Plant response rating (0 to 100 scale), Pigweed","[5]; Postemergence, 1000 g ai/ha",40
same,"Plant response rating (0 to 100 scale), Pigweed","[5]; Preemergence, 1000 g ai/ha",0
same,"Plant response rating (0 to 100 scale), Crabgrass, Large","[6]; Postemergence, 1000 g ai/ha",0
same,"Plant response rating (0 to 100 scale), Crabgrass, Large","[6]; Preemergence, 1000 g ai/ha",0
same,"Plant response rating (0 to 100 scale), Wheat","[7]; Postemergence, 1000 g ai/ha",0
same,"Plant response rating (0 to 100 scale), Wheat","[7]; Preemergence, 1000 g ai/ha",0
same,"Plant response rating (0 to 100 scale), Corn","[8]; Postemergence, 1000 g ai/ha",0
same,"Plant response rating (0 to 100 scale), Corn","[8]; Preemergence, 1000 g ai/ha",0
N#CN=C(c1ccccc1)c1c[nH]nc1-c1cc(Cl)cc(Cl)c1 [Compound 52],"Plant response rating (0 to 100 scale), Velvetleaf","[1]; Postemergence, 1000 g ai/ha",100
same,"Plant response rating (0 to 100 scale), Velvetleaf","[1]; Preemergence, 1000 g ai/ha",60
same,"Plant response rating (0 to 100 scale), Foxtail, Giant","[2]; Postemergence, 1000 g ai/ha",0
same,"Plant response rating (0 to 100 scale), Foxtail, Giant","[2]; Preemergence, 1000 g ai/ha",0
same,"Plant response rating (0 to 100 scale), Barnyardgrass","[3]; Postemergence, 1000 g ai/ha",0
same,"Plant response rating (0 to 100 scale), Barnyardgrass","[3]; Preemergence, 1000 g ai/ha",0
same,"Plant response rating (0 to 100 scale), Morningglory","[4]; Postemergence, 1000 g ai/ha",0
same,"Plant response rating (0 to 100 scale), Morningglory","[4]; Preemergence, 1000 g ai/ha",0
same,"Plant response rating (0 to 100 scale), Pigweed","[5]; Postemergence, 1000 g ai/ha",90
same,"Plant response rating (0 to 100 scale), Pigweed","[5]; Preemergence, 1000 g ai/ha",50
same,"Plant response rating (0 to 100 scale), Crabgrass, Large","[6]; Postemergence, 1000 g ai/ha",0
same,"Plant response rating (0 to 100 scale), Crabgrass, Large","[6]; Preemergence, 1000 g ai/ha",0
same,"Plant response rating (0 to 100 scale), Wheat","[7]; Postemergence, 1000 g ai/ha",0
same,"Plant response rating (0 to 100 scale), Wheat","[7]; Preemergence, 1000 g ai/ha",0
same,"Plant response rating (0 to 100 scale), Corn","[8]; Postemergence, 1000 g ai/ha",0
same,"Plant response rating (0 to 100 scale), Corn","[8]; Preemergence, 1000 g ai/ha",0
